Measured values as given in ChEMBL document CHEMBL3351357, “The enantiomers of the 1',6'-isomer of neplanocin A: synthesis and antiviral properties” (Bioorg Med Chem, 2014).

How the values were obtained:
[1] = Selectivity index, ratio of CC50 for human HepG2.2.15 cells to EC50 for Hepatitis B virus; assay type: toxicity; conditions: read-out: Selectivity Index
[2] = Cytotoxicity against human HepG2.2.15 cells; assay type: cell-based, HepG2 2.2.15
[3] = Cytotoxicity against human HFF cells; assay type: cell-based
[4] = test system: Vaccinia virus; test: Antiviral activity against Vaccinia virus infected in HFF cells assessed as inhibition of viral-induced cytopathicity; assay type: functional, organism-based, Orthopoxvirus vaccinia
[5] = test system: Measles morbillivirus; test: Antiviral activity against Measles virus infected in african green monkey Vero cells assessed as inhibition of viral-induced cytopathicity; assay type: functional, organism-based
[6] = Selectivity index, ratio of CC50 for african green monkey Vero cells to EC50 for Measles virus; assay type: toxicity, cell-based; conditions: read-out: Selectivity Index
[7] = Selectivity index, ratio of CC50 for human HG23 cells to EC90 for Norovirus; assay type: toxicity, cell-based; conditions: read-out: Selectivity Index
[8] = Selectivity index, ratio of CC50 for african green monkey Vero cells to EC50 for Dengue virus; assay type: toxicity, cell-based; conditions: read-out: Selectivity Index
[9] = Selectivity index, ratio of CC50 for human HFF cells to EC90 for human cytomegalovirus; assay type: toxicity, cell-based; conditions: read-out: Selectivity Index
[10] = Selectivity index, ratio of CC50 for human HFF cells to EC90 for Vaccinia virus; assay type: toxicity, cell-based; conditions: read-out: Selectivity Index
[11] = test system: Human betaherpesvirus 5; test: Antiviral activity against human cytomegalovirus infected in HFF cells assessed as inhibition of viral-induced cytopathicity; assay type: functional, organism-based; conditions: Human betaherpesvirus 5, HFF
[12] = Selectivity index, ratio of CC50 for human HepG2.2.15 cells to EC90 for Hepatitis B virus; assay type: toxicity; conditions: read-out: Selectivity Index
[13] = test system: Norovirus; test: Antiviral activity against Norovirus infected in HG23 cells assessed as inhibition of viral-induced cytopathicity; assay type: functional, cell-based
[14] = Cytotoxicity against african green monkey Vero cells; assay type: cell-based; conditions: chlorocebus sabaeus
[15] = Selectivity index, ratio of CC50 for human HFF cells to EC50 for human cytomegalovirus; assay type: toxicity, cell-based; conditions: read-out: Selectivity Index
[16] = Inhibition of rabbit erythrocyte S-adenosylhomocysteine hydrolase; set-up: species or system Oryctolagus cuniculus
[17] = Selectivity index, ratio of CC50 for human HG23 cells to EC50 for Norovirus; assay type: toxicity, cell-based; conditions: read-out: Selectivity Index
[18] = test system: Ebolavirus; test: Antiviral activity against Ebolavirus Zaire infected in african green monkey Vero cells assessed as inhibition of viral-induced cytopathicity; assay type: functional, cell-based; conditions: Orthoebolavirus
[19] = test system: Hepatitis B virus; test: Antiviral activity against Hepatitis B virus infected in HepG2.2.15 cells assessed as inhibition of viral-induced cytopathicity; assay type: functional, organism-based, HepG2 2.2.15
[20] = Cytotoxicity against human HG23 cells; assay type: cell-based
[21] = Selectivity index, ratio of CC50 for human HFF cells to EC50 for Vaccinia virus; assay type: toxicity, cell-based; conditions: read-out: Selectivity Index
[22] = test system: Dengue virus; test: Antiviral activity against Dengue virus infected in african green monkey Vero cells assessed as inhibition of viral-induced cytopathicity; assay type: functional, organism-based
[23] = Selectivity index, ratio of CC50 for african green monkey Vero cells to EC50 for Ebola virus Zaire virus; assay type: toxicity, cell-based; conditions: read-out: Selectivity Index

With `Nc1ncnc2c1ncn2C1=C[C@H](CO)[C@@H](O)[C@H]1O` the selectivity ratio [1] was greater than 14, the CC50 [2] was greater than 100 µM and the CC50 [3] was greater than 49.3 µM. For the same compound, the EC90 ([4]; Orthopoxvirus vaccinia, HFF) was greater than 300 µM, the EC50 ([4]; Orthopoxvirus vaccinia, HFF, read-out: EC50) was 10.1 µM and the EC50 [5] was less than 0.38 µM. It also gave a selectivity ratio [6] greater than 3.5, a selectivity ratio [7] greater than 11 and a selectivity ratio [8] of 17. It also gave a selectivity ratio [9] of less than 4, a selectivity ratio [10] of 1 and an EC50 [11] of 0.11 µM. It also gave an EC90 [11] greater than 10 µM, a selectivity ratio [12] greater than 3 and an EC50 [13] of 0.784 µM. For the same compound, the CC50 [14] was 1.3 µM, the selectivity ratio [15] was 448 and the IC50 [16] was 0.0009 µM. The selectivity ratio [17] was greater than 128, the EC50 [18] was 0.38 µM and the EC90 ([19]; Hepatitis B virus, HepG2 2.2.15) was 35 µM. For the same compound, the EC50 ([19]; Hepatitis B virus, HepG2 2.2.15, read-out: EC50) was 7.2 µM, the CC50 [20] was greater than 100 µM and the selectivity ratio [21] was greater than 30. The EC50 [22] was 1.1 µM and the selectivity ratio [23] was 3.5.

With `Nc1ncnc2c1ncn2C1=C[C@@H](CO)[C@H](O)[C@@H]1O` the EC50 ([4]; hff) was “Not Active”, the EC50 [5] was 0.72 µM and the EC50 [11] was 3.7 µM. It also gave an EC90 [11] of 6.86 µM, an EC50 [13] of 11 µM and an EC90 [13] of 89 µM. The CC50 [14] was 11.4 µM, the EC50 [18] was 0.76 µM and the EC50 ([19]; hepg2 2.2.15) was “Not Active”. For the same compound, the CC50 [20] was greater than 300 µM and the EC50 [22] was 1.3 µM.

With `Nc1ncnc2c1ncn2[C@@H]1C=C(CO)[C@@H](O)[C@H]1O` [NEOPLANOCIN A] the IC50 [16] was 0.0009 µM.
